Measurements as given in ChEMBL document CHEMBL1201862, “PubChem BioAssay data set” (2004).
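48-hour exposure; five concentrations; linearly interpolated endpoints. GI50 = concentration required for 50% inhibition of growth.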 Activity calls are given as the source filed them. Rule as the data show it: active = GI50 up to about 1.1 µM and inactive = higher.

What was measured:
Assay in all cases: NCI-60 cell line screen, 48 h
SR = test system: SR
M14 = test system: M14
786-0 = test system: 786-0
UO-31 = test system: UO-31
SF-295 = test system: SF-295
NCI-H226 = test system: NCI-H226
CAKI-1 = test system: CAKI-1
MDA-MB-435 = test system: MDA-MB-435
SNB-75 = test system: SNB-75
HT-29 = test system: HT-29
SK-MEL-2 = test system: SK-MEL-2
HCT-116 = test system: HCT-116
NCI-H460 = test system: NCI-H460
SW-620 = test system: SW-620
ACHN = test system: ACHN
MDA-MB-231 = test system: MDA-MB-231
RXF 393 = test system: RXF 393
SK-MEL-5 = test system: SK-MEL-5
MOLT-4 = test system: MOLT-4
CCRF-CEM = test system: CCRF-CEM

Compound | GI50 (SR) | GI50 (M14) | GI50 (786-0) | GI50 (UO-31) | GI50 (SF-295) | GI50 (NCI-H226) | GI50 (CAKI-1) | GI50 (MDA-MB-435) | GI50 (SNB-75) | GI50 (HT-29) | GI50 (SK-MEL-2) | GI50 (HCT-116) | GI50 (NCI-H460) | GI50 (SW-620) | GI50 (ACHN) | GI50 (MDA-MB-231) | GI50 (RXF 393) | GI50 (SK-MEL-5) | GI50 (MOLT-4) | GI50 (CCRF-CEM)
Oc1nc(-c2ccc3ccccc3c2)nc2ccccc12 | 20.4 µM (inactive) | 33.5 µM (inactive) | 6.89 µM (inactive) | 23.4 µM (inactive) | 23.4 µM (inactive) | 12.6 µM (inactive) | 75 µM (inactive) | 61.9 µM (inactive) | 4.53 µM (inactive) | 57.7 µM (inactive) | 91.8 µM (inactive) | 18.7 µM (inactive) | 21.9 µM (inactive) | > 100 µM (inactive) | 13.9 µM (inactive) | 29 µM (inactive) | 25.4 µM (inactive) | > 100 µM (inactive) | > 100 µM (inactive) | –
C/C=C/C[C@@H](C)C(=O)C1C(=O)N[C@@H](C(C)C)C(=O)N(C)CC(=O)N(C)[C@@H](CC(C)C)C(=O)N[C@@H](C(C)C)C(=O)N(C)[C@@H](CC(C)C)C(=O)N[C@@H](C)C(=O)N[C@@H](C)C(=O)N(C)[C@@H](CC(C)C)C(=O)N(C)[C@@H](CC(C)C)C(=O)N(C)[C@@H](C(C)C)C(=O)N1C (some centres undefined) | 4.07 µM (inactive) | 6.28 µM (inactive) | 7.76 µM (inactive) | 3.78 µM (inactive) | 7.28 µM (inactive) | 6.11 µM (inactive) | 12.8 µM (inactive) | 3.35 µM (inactive) | 4.98 µM (inactive) | 3.8 µM (inactive) | – | 3.03 µM (inactive) | 6.01 µM (inactive) | 5.24 µM (inactive) | 4.4 µM (inactive) | 6.17 µM (inactive) | 3.03 µM (inactive) | 2.99 µM (inactive) | 2.35 µM (inactive) | 4.06 µM (inactive)
C[C@]12CCC3c4ccc(O)cc4CC[C@H]3C1CC(=O)NC2=O (some centres undefined) | > 10 µM (inactive) | > 10 µM (inactive) | > 10 µM (inactive) | > 10 µM (inactive) | > 10 µM (inactive) | > 10 µM (inactive) | > 10 µM (inactive) | > 10 µM (inactive) | – | > 10 µM (inactive) | > 10 µM (inactive) | > 10 µM (inactive) | > 10 µM (inactive) | > 10 µM (inactive) | > 10 µM (inactive) | > 10 µM (inactive) | > 10 µM (inactive) | > 10 µM (inactive) | > 10 µM (inactive) | > 10 µM (inactive)
N=C(N)N/N=C\c1c(-c2cccc([N+](=O)[O-])c2)nc2sc(Cl)cn12 | 0.61 µM (active) | 3.49 µM (inactive) | 3.27 µM (inactive) | 1.71 µM (inactive) | 2.31 µM (inactive) | 53.2 µM (inactive) | 2.33 µM (inactive) | 2.07 µM (inactive) | 1.52 µM (inactive) | 1.73 µM (inactive) | 1.96 µM (inactive) | – | 2.67 µM (inactive) | 3.18 µM (inactive) | 29.2 µM (inactive) | 2.74 µM (inactive) | 2.19 µM (inactive) | 24.4 µM (inactive) | 2 µM (inactive) | 1.26 µM (inactive)
C/C(=C\CO)CC/C=C(\C)CNc1ccc([N+](=O)[O-])cc1 | 4.54 µM (inactive) | 62.1 µM (inactive) | > 100 µM (inactive) | 7.98 µM (inactive) | 32.5 µM (inactive) | 96.6 µM (inactive) | 80.5 µM (inactive) | 28.6 µM (inactive) | 0.0219 µM (active) | 27.4 µM (inactive) | 20.4 µM (inactive) | 93.5 µM (inactive) | > 100 µM (inactive) | 56.1 µM (inactive) | 80.4 µM (inactive) | 26.2 µM (inactive) | > 100 µM (inactive) | 12 µM (inactive) | 1.93 µM (inactive) | –
CC(=O)N1N=C(c2cc(C)ccc2O)CC1c1cccc(Cl)c1 (centres undefined) | 1.83 µM (inactive) | 15.1 µM (inactive) | 21.7 µM (inactive) | 17.4 µM (inactive) | 10.9 µM (inactive) | 16.1 µM (inactive) | 27.3 µM (inactive) | 1.6 µM (inactive) | – | 6.97 µM (inactive) | 10.3 µM (inactive) | 13.8 µM (inactive) | 8.85 µM (inactive) | 7.74 µM (inactive) | 16.1 µM (inactive) | 17.5 µM (inactive) | 11.3 µM (inactive) | 11.7 µM (inactive) | 4.26 µM (inactive) | 13.4 µM (inactive)
Cc1ccc(C(=O)C2C=C(c3ccc(C)cc3)SC3C=CCC32)cc1 (centres undefined) | 12.6 µM (inactive) | 19.6 µM (inactive) | 19.5 µM (inactive) | 16.1 µM (inactive) | 19.1 µM (inactive) | 27.2 µM (inactive) | 18.9 µM (inactive) | 14.4 µM (inactive) | – | 21.4 µM (inactive) | 16.1 µM (inactive) | 13.5 µM (inactive) | 16.9 µM (inactive) | 15.8 µM (inactive) | 20.5 µM (inactive) | 25.1 µM (inactive) | 21 µM (inactive) | 15.5 µM (inactive) | 12.1 µM (inactive) | 13.6 µM (inactive)
CC1OCC2OC(C)OC(C3C4=C(CC(C)(C)CC4=O)OC4=C3C(=O)CC(C)(C)C4)C2O1 (centres undefined) | > 100 µM (inactive) | > 100 µM (inactive) | > 100 µM (inactive) | > 100 µM (inactive) | > 100 µM (inactive) | > 100 µM (inactive) | > 100 µM (inactive) | > 100 µM (inactive) | > 100 µM (inactive) | > 100 µM (inactive) | > 100 µM (inactive) | > 100 µM (inactive) | > 100 µM (inactive) | > 100 µM (inactive) | > 100 µM (inactive) | > 100 µM (inactive) | > 100 µM (inactive) | > 100 µM (inactive) | > 100 µM (inactive) | > 100 µM (inactive)
C=C1c2nc3ccccc3n2C=C(c2ccccc2)N1c1ccccc1 | 21.7 µM (inactive) | 67.9 µM (inactive) | > 100 µM (inactive) | 25.7 µM (inactive) | 32.1 µM (inactive) | 57.4 µM (inactive) | 81.7 µM (inactive) | 40.5 µM (inactive) | > 100 µM (inactive) | – | 73.5 µM (inactive) | 13.5 µM (inactive) | 27.5 µM (inactive) | 40.3 µM (inactive) | 49.4 µM (inactive) | > 100 µM (inactive) | 22.4 µM (inactive) | 17.1 µM (inactive) | 21.4 µM (inactive) | 53.3 µM (inactive)
Nc1c2c(nc3cc(F)c(F)cc13)CCC2 | 24.2 µM (inactive) | 61.5 µM (inactive) | 45.6 µM (inactive) | 4.05 µM (inactive) | 41.2 µM (inactive) | 33.3 µM (inactive) | 47.5 µM (inactive) | 54 µM (inactive) | 42.5 µM (inactive) | 31.8 µM (inactive) | > 100 µM (inactive) | 38 µM (inactive) | 22.1 µM (inactive) | 29.2 µM (inactive) | 32.6 µM (inactive) | 56.1 µM (inactive) | 33.5 µM (inactive) | 42.7 µM (inactive) | 30.5 µM (inactive) | –
Clc1ccc(/C=N/C23CC4CC(CC(C4)C2)C3)c(Cl)c1 | 3.5 µM (inactive) | > 10 µM (inactive) | > 10 µM (inactive) | – | > 10 µM (inactive) | > 10 µM (inactive) | > 10 µM (inactive) | > 10 µM (inactive) | > 10 µM (inactive) | > 10 µM (inactive) | > 10 µM (inactive) | > 10 µM (inactive) | > 10 µM (inactive) | > 10 µM (inactive) | > 10 µM (inactive) | > 10 µM (inactive) | > 10 µM (inactive) | > 10 µM (inactive) | > 10 µM (inactive) | > 10 µM (inactive)
C/C=C/C=C\C=C/C(O)C(C)C(CCC(C)C1OC(=O)C=CC1C)OP(=O)(O)O (centres undefined) | 0.176 µM (active) | 0.229 µM (active) | 0.404 µM (active) | 0.399 µM (active) | 0.287 µM (active) | 0.614 µM (active) | 0.136 µM (active) | 0.133 µM (active) | 0.986 µM (active) | 0.376 µM (active) | 0.692 µM (active) | 0.251 µM (active) | 0.4 µM (active) | 0.479 µM (active) | 0.351 µM (active) | 35.8 µM (inactive) | 0.527 µM (active) | 0.658 µM (active) | 0.275 µM (active) | 0.243 µM (active)
O=c1cc(-c2ccccc2F)[nH]c2ccc(N3CCCC3)cc12 | 0.498 µM (active) | 0.0301 µM (active) | 0.0442 µM (active) | 0.00274 µM (active) | – | – | < 0.001 µM (active) | < 0.001 µM (active) | 63.2 µM (inactive) | 0.0284 µM (active) | 0.0167 µM (active) | – | 0.0417 µM (active) | < 0.001 µM (active) | < 0.001 µM (active) | 0.00122 µM (active) | 13 µM (inactive) | 0.0419 µM (active) | 0.078 µM (active) | 0.0461 µM (active)
C[C@]12CC[C@H](OC3OC(CO)C(O)C(O)C3O)C[C@H]1CC[C@@H]1[C@@H]2CC[C@]2(C)[C@@H](C3=CCOC3=O)CC[C@]12O (some centres undefined) [ACTODIGIN] | 2.96 µM (inactive) | > 100 µM (inactive) | > 100 µM (inactive) | 40.3 µM (inactive) | 1.45 µM (inactive) | – | – | > 100 µM (inactive) | 6.84 µM (inactive) | 41.1 µM (inactive) | 30.9 µM (inactive) | 15.7 µM (inactive) | – | 18.6 µM (inactive) | 14.5 µM (inactive) | > 100 µM (inactive) | 8.49 µM (inactive) | 7.52 µM (inactive) | – | –
CC1(C)CCC2=C(O1)c1ccccc1C(=O)C2=O [LAPACHONE] | 0.215 µM (active) | 0.316 µM (active) | 1.2 µM (inactive) | – | 0.7 µM (active) | 1.35 µM (inactive) | 1.03 µM (active) | 2.07 µM (inactive) | 0.358 µM (active) | 2.5 µM (inactive) | 1.42 µM (inactive) | 0.277 µM (active) | – | 0.432 µM (active) | – | 0.507 µM (active) | 1.41 µM (inactive) | 0.272 µM (active) | 0.708 µM (active) | 0.908 µM (active)
